According to ChEMBL document CHEMBL1136469, “Non-peptide alpha(v)beta(3) antagonists: identification of potent, chain-shortened RGD mimetics that incorporate a central pyrrolidinone constraint” (Bioorg Med Chem Lett, 2003):

Legend:
physchem = conditions: octanol/water
Description: Partition coefficient (logP)

in vivo [1] = conditions: dog
Description: Half-life was measured in dog

Integrin alpha-V/beta-3 = Integrin alpha-V/beta-3 (Homo sapiens, UniProt P05106+P06756)
Description: Displacement of [125I]-labeled nonpeptide from purified recombinant human alphaV-beta3 integrin

in vivo [2] = conditions: dog, plasma
Description: Plasma clearance was measured in dog

in vivo [3] = conditions: dog, po
Description: Oral bioavailability in dog

Sequence of Integrin alpha-V/beta-3 (P05106 27-788 limits assumed): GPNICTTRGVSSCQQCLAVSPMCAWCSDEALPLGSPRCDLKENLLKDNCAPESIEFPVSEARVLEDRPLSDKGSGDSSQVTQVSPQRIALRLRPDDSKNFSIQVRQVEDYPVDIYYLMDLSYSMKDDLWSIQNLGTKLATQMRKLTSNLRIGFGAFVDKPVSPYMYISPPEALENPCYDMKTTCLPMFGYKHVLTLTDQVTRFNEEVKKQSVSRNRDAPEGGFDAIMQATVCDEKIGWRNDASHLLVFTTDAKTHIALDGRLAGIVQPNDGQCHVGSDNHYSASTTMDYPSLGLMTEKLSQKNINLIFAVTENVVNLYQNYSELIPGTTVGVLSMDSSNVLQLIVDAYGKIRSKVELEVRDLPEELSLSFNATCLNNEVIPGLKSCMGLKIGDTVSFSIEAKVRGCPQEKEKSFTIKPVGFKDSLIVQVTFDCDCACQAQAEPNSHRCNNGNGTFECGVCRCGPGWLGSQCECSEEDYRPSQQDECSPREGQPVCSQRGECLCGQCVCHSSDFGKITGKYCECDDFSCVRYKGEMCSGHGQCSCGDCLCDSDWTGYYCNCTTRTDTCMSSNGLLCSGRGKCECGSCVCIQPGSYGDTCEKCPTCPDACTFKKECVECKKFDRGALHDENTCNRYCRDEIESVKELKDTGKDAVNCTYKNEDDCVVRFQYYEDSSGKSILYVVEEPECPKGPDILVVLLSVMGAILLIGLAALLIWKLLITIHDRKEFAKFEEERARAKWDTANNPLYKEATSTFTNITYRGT
Sequence of Integrin alpha-V/beta-3 (P06756 31-889 limits assumed): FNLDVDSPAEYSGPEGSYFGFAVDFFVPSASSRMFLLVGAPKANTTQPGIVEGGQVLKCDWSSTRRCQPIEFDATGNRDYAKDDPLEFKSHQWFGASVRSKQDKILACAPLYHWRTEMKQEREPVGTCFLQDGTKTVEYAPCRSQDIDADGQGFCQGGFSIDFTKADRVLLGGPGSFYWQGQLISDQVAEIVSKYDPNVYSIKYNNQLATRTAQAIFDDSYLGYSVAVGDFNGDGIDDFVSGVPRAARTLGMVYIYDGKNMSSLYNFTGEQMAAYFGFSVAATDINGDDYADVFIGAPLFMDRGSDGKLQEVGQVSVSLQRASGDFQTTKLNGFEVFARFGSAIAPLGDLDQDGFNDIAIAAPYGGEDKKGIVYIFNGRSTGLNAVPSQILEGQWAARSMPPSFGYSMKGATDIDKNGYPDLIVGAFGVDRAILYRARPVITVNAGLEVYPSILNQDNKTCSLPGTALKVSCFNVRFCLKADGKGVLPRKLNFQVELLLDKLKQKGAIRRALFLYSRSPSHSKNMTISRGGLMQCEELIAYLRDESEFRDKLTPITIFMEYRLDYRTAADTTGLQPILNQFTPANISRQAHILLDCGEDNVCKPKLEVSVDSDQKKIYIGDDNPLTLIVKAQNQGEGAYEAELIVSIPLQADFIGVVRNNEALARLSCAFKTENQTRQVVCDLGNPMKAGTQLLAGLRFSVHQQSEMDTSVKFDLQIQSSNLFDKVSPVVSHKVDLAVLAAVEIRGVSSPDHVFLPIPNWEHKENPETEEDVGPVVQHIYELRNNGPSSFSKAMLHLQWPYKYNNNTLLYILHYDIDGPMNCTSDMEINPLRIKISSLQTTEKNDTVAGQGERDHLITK
Sequence of Integrin alpha-V/beta-3 (P06756 891-1048 limits assumed): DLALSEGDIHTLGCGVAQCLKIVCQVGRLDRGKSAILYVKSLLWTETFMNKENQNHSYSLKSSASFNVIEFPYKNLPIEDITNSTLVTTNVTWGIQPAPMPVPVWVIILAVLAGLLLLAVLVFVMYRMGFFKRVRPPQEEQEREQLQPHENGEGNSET

| Structure (SMILES) | logP (physchem) | half-life (in vivo [1]) [h] | IC50 (Integrin alpha-V/beta-3) [nM] | clearance (in vivo [2]) [L/h/kg] | bioavailability (in vivo [3]) [%] |
| --- | --- | --- | --- | --- | --- |
| O=C(O)C[C@@H](c1ccc2c(c1)OCC2)N1CC[C@@H](CCCc2ccc3c(n2)NCCC3)C1=O | 0.88 | 8 | 0.39 | 0.126 | 52 |
| O=C(O)C[C@@H](c1ccc2c(c1)OCC2)N1CC[C@H](CCCc2ccc3c(n2)NCCC3)C1=O | -0.12 | 1.5 | 0.22 | 1.37 | 11.5 |
| O=C(O)C[C@H](NC(=O)CCCCc1ccc2c(n1)NCCC2)c1cnc2ccccc2c1 | 0.77 | – | – | – | – |
